# Experimental data published in US4659859A, “2-alkoxy-1-alkoxy phosphoryl dichlorides” (priority 1986, dated 1987).
# “And” between values parts separate entries of the source, which are not always exact repeats. Equal values may be shown once. Where a name gives a salt, the structure may show the parent alone.
# Tests used:
# C3 H mammary carcinoma = test: Antitumor activity vs C3 H mammary carcinoma; set-up: species or system mice; conditions: mouse, in vivo
# Text: (§1) Compounds according to formula II above are also active against transplanted tumors in mice. Table II which follows gives the results of testing (d,1)-2-ethoxy-1-[(2-trimethylaminoethoxy)phosphinyloxy]-eicosane,hydroxy inner salt, (A), against several such tumors. In the table, column 1 gives the name of the tumor, column 2 the dosage levels, column 3 toxic deaths, column 4, the percent tumor growth inhibition and column 5, the dosage schedule or regimen. Ten mice were given each dosage I.P. and a group of 20 mice used as controls.
# M-5 ovarian carcinoma = test: Antitumor activity vs M-5 ovarian carcinoma; set-up: species or system mice; conditions: mouse, in vivo
# Text: as §1
# [1] = tested on: X-5563 plasma cell myeloma; test: Oral dosing vs X-5563 plasma cell myeloma; type: in vivo, mice
# [2] = tested on: release of arachidonic acid from membrane phospholipids (rabbit neutrophils); test: Inhibition of release of arachidonic acid from membrane phospholipids in glycogen-elicited rabbit neutrophils; type: cell-based; conditions: A-23187 0.5 mcg/ml activation, 5 minutes pretreatment at 37° C.
# Experimental: In this procedure, glycogen-elicited rabbit neutrophils are labelled with ^14 C-arachidonic acid by incubation for one hour at 37° C. and followed by treatment with the compound under test at 37° C. for 5 minutes. The cells were then activated by addition of 0.5 mcg/ml of A-23187 (an ionophore) for 5 minutes. Cellular metabolism was stopped; the membrane lipids extracted; and the extracted lipids chromatographed on TLC plates. Assays were conducted for free ^14 C-arachidonic acid and hydroxy^14 C-eicosatetraenoic acid (HETES) using a radiochromatogram scanner.
# 6C3 HED lymphosarcoma = test: Antitumor activity vs 6C3 HED lymphosarcoma in mice; type: in vivo; conditions: daily for 8 days after inoculation
# Text: as §1
# [3] = tested on: spontaneously hypertensive rats (SHR); test: Blood pressure and heart rate in spontaneously hypertensive rats, femoral artery cannula; type: in vivo, rat; conditions: for Blood pressure: femoral artery cannula
# Text: (§2) The above compounds are also active in lowering the blood pressure of spontaneously hypertensive rats (SHR). […] In the table, column 1 gives the compound used, column 2 the dose level, column 3, the route of administration, column 4, number of rats, column 5, the time of blood pressure measurement, column 6, blood pressure in mm (Hg), and column 7, heart rate.
# **B.P. measured by femoral artery cannula.
# C-6 colon carcinoma = test: Antitumor activity vs C-6 colon carcinoma in mice; type: in vivo; conditions: daily for 10 days, 5 day delay
# Text: as §1
# P388 leukemia = test: Antitumor activity vs P388 leukemia; set-up: species or system mice; conditions: mouse, in vivo
# Text: as §1
# CA755 mammary carcinoma = test: Antitumor activity vs CA755 mammary carcinoma; set-up: species or system mice; conditions: mouse, in vivo
# Text: as §1
# [4] = tested on: X-5563 plasma cell myeloma; test: Antitumor activity vs X-5563 plasma cell myeloma in mice; type: in vivo; conditions: daily for 10 days with 3 day delay
# Text: as §1
# Table III gives the results obtained by comparing the activity of the racemate (d,1)-2-ethoxy-1-[(2-trimethylaminoethoxy)phosphinyloxy]eicosane,hydroxy inner salt (A), the L-(-)enantiomer (B) and the D-(+)enantiomer (C) versus X-5563, a plasma cell myeloma.
# [5] = tested on: spontaneously hypertensive rats (SHR); test: Blood pressure and heart rate in spontaneously hypertensive rats, tail cuff method; type: in vivo, rat; conditions: for Blood pressure: tail cuff
# Text: as §2
# *B.P. measured by tail cuff method.
# [6] = 3 mg/kg I.V., 0 hours (baseline)
# [7] = 10 mg/kg I.V., 0 hours (baseline)
# [8] = 30 mg/kg S.C., 0 hours (baseline), 8 rats
# [9] = 50 mg/kg S.C., 0 hours (baseline), 8 rats
structure (smiles),measurement,setting,value
"CCCCCCCCCCCCCCCCCCC(COP(=O)([O-])OCC[N+](C)(C)C)OCC (racemic) [Compound 3, (d,l)-2-Ethoxy-1-[(2-trimethylaminoethoxy)phosphinyloxy]eicosane, hydroxy inner salt]",activity against C3 H mammary carcinoma,C3 H mammary carcinoma,no activity
same,activity against M-5 ovarian carcinoma,M-5 ovarian carcinoma,no activity
same,inhibition of tumor growth,[1]; 25 mg/kg orally daily for 10 days after inoculation,10%
same,inhibition of tumor growth,[1]; 35 mg/kg orally daily for 10 days after inoculation,47%
same,inhibition of tumor growth,[1]; 50 mg/kg orally daily for 10 days after inoculation,56%
same,toxicity,"[1]; 50, 35 and 25 mg/kg orally daily for 10 days",minimal toxicity
same,toxicity,[1]; 50 and 70 mg/kg dose levels orally,toxic
same,inhibition of the release of arachidonic acid (AA) from phospholipids,[2],69%
same,inhibition of the total production of free AA and HETES,[2],97%
same,Percent inhibition of Tumor growth,6C3 HED lymphosarcoma; 12 mg/kg I.P.,10%
same,Toxic deaths,6C3 HED lymphosarcoma; 12 mg/kg I.P.,0/10
same,Percent inhibition of Tumor growth,6C3 HED lymphosarcoma; 17 mg/kg I.P.,15%
same,Toxic deaths,6C3 HED lymphosarcoma; 17 mg/kg I.P.,0/10
same,Percent inhibition of Tumor growth,6C3 HED lymphosarcoma; 25 mg/kg I.P.,48%
same,Toxic deaths,6C3 HED lymphosarcoma; 25 mg/kg I.P.,0/10
same,Percent inhibition of Tumor growth,6C3 HED lymphosarcoma; 35 mg/kg I.P.,85%
same,Toxic deaths,6C3 HED lymphosarcoma; 35 mg/kg I.P.,0/10
same,Heart Rate,[3]; [6],335 beats/min
same,Blood pressure,[3]; [6],195 mm Hg
same,Heart Rate,"[3]; 3 mg/kg I.V., 1.0 hours",395 beats/min
same,Blood pressure,"[3]; 3 mg/kg I.V., 1.0 hours",173 mm Hg
same,Heart Rate,"[3]; 3 mg/kg I.V., .08 hours",280 beats/min
same,Blood pressure,"[3]; 3 mg/kg I.V., .08 hours",105 mm Hg
same,Heart Rate,"[3]; 3 mg/kg I.V., .25 hours",337 beats/min
same,Blood pressure,"[3]; 3 mg/kg I.V., .25 hours",140 mm Hg
same,Heart Rate,"[3]; 3 mg/kg I.V., .5 hours",370 beats/min
same,Blood pressure,"[3]; 3 mg/kg I.V., .5 hours",153 mm Hg
same,Heart Rate,[3]; [7],345 beats/min
same,Blood pressure,[3]; [7],198 mm Hg
same,Heart Rate,"[3]; 10 mg/kg I.V., 1.0 hours",365 beats/min
same,Blood pressure,"[3]; 10 mg/kg I.V., 1.0 hours",154 mm Hg
same,Heart Rate,"[3]; 10 mg/kg I.V., .08 hours",442 beats/min
same,Blood pressure,"[3]; 10 mg/kg I.V., .08 hours",78 mm Hg
same,Heart Rate,"[3]; 10 mg/kg I.V., .25 hours",420 beats/min
same,Blood pressure,"[3]; 10 mg/kg I.V., .25 hours",140 mm Hg
same,Heart Rate,"[3]; 10 mg/kg I.V., .5 hours",395 beats/min
same,Blood pressure,"[3]; 10 mg/kg I.V., .5 hours",153 mm Hg
same,Percent inhibition of Tumor growth,C-6 colon carcinoma; 12 mg/kg I.P.,23%
same,Toxic deaths,C-6 colon carcinoma; 12 mg/kg I.P.,0/10
same,Percent inhibition of Tumor growth,C-6 colon carcinoma; 17 mg/kg I.P.,56%
same,Toxic deaths,C-6 colon carcinoma; 17 mg/kg I.P.,1/10
same,Percent inhibition of Tumor growth,C-6 colon carcinoma; 25 mg/kg I.P.,24%
same,Toxic deaths,C-6 colon carcinoma; 25 mg/kg I.P.,0/10
same,Percent inhibition of Tumor growth,C-6 colon carcinoma; 35 mg/kg I.P.,Toxic
same,Toxic deaths,C-6 colon carcinoma; 35 mg/kg I.P.,5/10
same,activity against P388 leukemia,P388 leukemia,no activity
same,activity against CA755 mammary carcinoma,CA755 mammary carcinoma,no activity
same,Percent inhibition of Tumor growth,[4]; 12 mg/kg,37%
same,Toxic deaths,[4]; 12 mg/kg,0/10
same,Toxic deaths,[4]; 17 mg/kg,0/10
same,Percent inhibition of Tumor growth,"[4]; 17 mg/kg, listed as (d,1)-A",65%
same,Percent inhibition of Tumor growth,"[4]; 17 mg/kg, listed as A",65% and 70%
same,Percent inhibition of Tumor growth,"[4]; 25 mg/kg, listed as (d,1)-A",77%
same,Toxic deaths,"[4]; 25 mg/kg, listed as (d,1)-A",0/10
same,Percent inhibition of Tumor growth,"[4]; 25 mg/kg, listed as A",77% and 86%
same,Toxic deaths,"[4]; 25 mg/kg, listed as A",0/10 and 2/10
same,Percent inhibition of Tumor growth,"[4]; 35 mg/kg, listed as (d,1)-A",Toxic
same,Toxic deaths,"[4]; 35 mg/kg, listed as (d,1)-A",4/10
same,Percent inhibition of Tumor growth,"[4]; 35 mg/kg, listed as A",toxic
same,Toxic deaths,"[4]; 35 mg/kg, listed as A",4/10 and 5/10
same,Toxic deaths,[4]; 50 mg/kg,10/10
same,Percent inhibition of Tumor growth,"[4]; 50 mg/kg, listed as (d,1)-A",Toxic
same,Percent inhibition of Tumor growth,"[4]; 50 mg/kg, listed as A",toxic
same,Percent inhibition of Tumor growth,[4]; 70 mg/kg,toxic
same,Toxic deaths,[4]; 70 mg/kg,10/10
same,Blood pressure,"[5]; 5 mg/kg S.C., 0 hours (baseline), 5 rats",188 mm Hg
same,Blood pressure,"[5]; 5 mg/kg S.C., 1 hour, 5 rats",177 mm Hg
same,Blood pressure,"[5]; 5 mg/kg S.C., 2 hours, 5 rats",159 mm Hg
same,Blood pressure,"[5]; 5 mg/kg S.C., 3 hours, 5 rats",155 mm Hg
same,Blood pressure,"[5]; 5 mg/kg S.C., 4 hours, 5 rats",154 mm Hg
same,Blood pressure,"[5]; 5 mg/kg S.C., 5 hours, 5 rats",156 mm Hg
same,Heart Rate,[5]; [8],335 beats/min
same,Blood pressure,[5]; [8],188 mm Hg
same,Heart Rate,"[5]; 30 mg/kg S.C., 1 hour, 8 rats",328 beats/min
same,Blood pressure,"[5]; 30 mg/kg S.C., 1 hour, 8 rats",177 mm Hg
same,Heart Rate,"[5]; 30 mg/kg S.C., 2 hours, 8 rats",349 beats/min
same,Blood pressure,"[5]; 30 mg/kg S.C., 2 hours, 8 rats",151 mm Hg
same,Heart Rate,"[5]; 30 mg/kg S.C., 3 hours, 8 rats",346 beats/min
same,Blood pressure,"[5]; 30 mg/kg S.C., 3 hours, 8 rats",147 mm Hg
same,Heart Rate,"[5]; 30 mg/kg S.C., 4 hours, 8 rats",347 beats/min
same,Blood pressure,"[5]; 30 mg/kg S.C., 4 hours, 8 rats",156 mm Hg
same,Heart Rate,"[5]; 30 mg/kg S.C., 5 hours, 8 rats",341 beats/min
same,Blood pressure,"[5]; 30 mg/kg S.C., 5 hours, 8 rats",151 mm Hg
same,Heart Rate,[5]; [9],345 beats/min
same,Blood pressure,[5]; [9],190 mm Hg
same,Heart Rate,"[5]; 50 mg/kg S.C., 1 hour, 8 rats",352 beats/min
same,Blood pressure,"[5]; 50 mg/kg S.C., 1 hour, 8 rats",177 mm Hg
same,Heart Rate,"[5]; 50 mg/kg S.C., 2 hours, 8 rats",355 beats/min
same,Blood pressure,"[5]; 50 mg/kg S.C., 2 hours, 8 rats",149 mm Hg
same,Heart Rate,"[5]; 50 mg/kg S.C., 3 hours, 8 rats",367 beats/min
same,Blood pressure,"[5]; 50 mg/kg S.C., 3 hours, 8 rats",143 mm Hg
same,Heart Rate,"[5]; 50 mg/kg S.C., 4 hours, 8 rats",357 beats/min
same,Blood pressure,"[5]; 50 mg/kg S.C., 4 hours, 8 rats",139 mm Hg
same,Heart Rate,"[5]; 50 mg/kg S.C., 5 hours, 8 rats",359 beats/min
same,Blood pressure,"[5]; 50 mg/kg S.C., 5 hours, 8 rats",129 mm Hg
same,hypotensive effects in SHR (in words),"[5]; administered subcutaneously, various dose levels",hypotensive effects
